{"source": "patent US12178846B2", "about": "“Methods of using gap junctions as therapeutic targets for the treatment of degenerative disorders of the retina” (The Research Foundation for The State University of New York, priority 2014, dated 2024)", "key": {"[1]": {"test_system": "amacrine cells in the INL", "assay": "NMDA-induced excitotoxic loss of amacrine cell subpopulations in the INL", "type": "cell-based, mouse", "description": "Various methods were employed to produce cell death. (1) Single cell apoptosis: CytC was injected into individual RGCs or Müller cells for 15 minutes after which retinas were incubated for 4 hours in oxygenated Ames medium before fixation. […] Both control and drug-treated retinas were then exposed for 1 hour to NMDA (100-300 μM) to induce excitotoxicity followed by 4 hours in the control Ames solution. (3) Retinal ischemia: Transient in vivo retinal ischemia was induced by introducing into the anterior chamber a 33-gauge needle attached to a saline-filled reservoir (0.9% sodium chloride) that was raised above the animal so as to increase intraocular pressure (IOP) to a level […]. MFA (2 μl, 500 μM) was administered intravitreally either 30 minutes before or 3 and 24 hours following the ischemic insult. The opposite eye was cannulated, but maintained at normal IOP to serve as a normotensive control. After 40-50 minutes, the needle was withdrawn and ischemia was evidenced by corneal whitening. After 7 days of reperfusion, mice were sacrificed and eyes were processed to assess retinal damage and neuronal death. […]\nIn some experiments, cells counts were limited to retrograde labeled RGCs in the GCL or certain subpopulation of amacrine cells, identified by specific markers, such as calretinin (CR), calbindin (CB) and choline acetyltransferase (ChAT) in the INL. Fluorescence intensity measures were made of glial fibrillary acidic protein (GFAP), which is overexpressed in Müller glial cells following retinal injury. Expression of GFAP and connexins were quantified by analysis of confocal images with Metavue software (Molecular Devices). Average pixel fluorescence intensities were measured by using uniform rectangular areas (3-5 per image) extending either from the GCL to the outer limiting membrane for GFAP or through the IPL for connexins. […]"}, "[2]": {"test_system": "RGCs in microbead-injected eyes", "assay": "Microbead-induced experimental glaucoma", "type": "in vivo, mouse", "description": "Experimental glaucoma in mice is induced by IOP elevation achieved by intracameral injections of 10 μm polystyrene microbeads (Invitrogen) as previously described (Chen H, et al., Invest Ophthalmol Vis Sci. 52:36-44 (2011)). The intracameral injections are made unilaterally with 2 μl of microbead suspension containing ˜7.2×106 beads using a glass micropipette attached to a microliter syringe. An equivalent volume of phosphate-buffered saline (PBS) is injected in contralateral eyes to serve as a control. Measurements of IOP are made with the commercially-available Tonolab tonometer (Colonial Medical Supply) and are performed weekly for up to 8 weeks after the microbeads injection. Measurements are made between […] and 12 PM, to minimize the effect of diurnal IOP variations. Six IOP measurements are made at each interval and averaged. Experimental glaucoma was induced by intracameral injections of polystyrene microbeads (Chen H, et al., Invest Ophthalmol Vis Sci. 52:36-44 (2011)) in one eye of wild type (WT) mice, connexin knockout (KO) mice and their […] (HET) control littermates, with sham injection of the second eye as control. IOP measurements were performed weekly and animals were sacrificed at 1, 4, or 8 weeks after initial bead injection. To access cell loss, RGCs and coupled ACs were retrogradely labeled with optic nerve injection of Neurobiotin and vertical retinal sections were counterstained with DAPI to determine overall nuclear counts. RGCs were also labeled by Brn3a antibody for identification. In addition to cell counts, overall retinal damage was assessed by GFAP expression. In some experiments gap junctions were blocked with meclofenamic acid (MFA) intravitreal weekly injections or genetically ablated in connexin KO mice (Cx36^−/−, Cx45^−/−, and Cx36^−/−/Cx45^−/− mice). Data are presented as mean±standard mean error. […] Statistical comparisons were assessed using Student's t-test. […]"}, "[3]": {"settings": "MFA 50 μM 30 min, NMDA 300 μM 1 h, p<0.01"}}, "note": "Entries after “also recorded” stand apart in the source; their conditions may differ.", "data": [{"smiles": "Cc1ccc(Cl)c(Nc2ccccc2C(=O)O)c1Cl", "note": "[MFA, meclofenamic acid]", "values": [{"measurement": "number of CB-immunolabeled ACs in the INL", "setting": "[1]; [3]", "result": "prevented the loss; also recorded: prevented such reduction"}, {"measurement": "number of CR-immunolabeled ACs in the INL", "setting": "[1]; [3]", "result": "prevented the loss; also recorded: prevented reduction"}, {"measurement": "number of ChAT-positive ACs in the INL", "setting": "[1]; MFA, NMDA-induced excitotoxicity, p>0.1", "result": "nor was this affected"}, {"measurement": "RGC cell counts", "setting": "[2]; MFA (50 μM) before and after bead injection, 8 weeks, control 50±1, untreated bead-injected 33±1, p>0.1 vs control", "result": "47±4"}, {"measurement": "RGC counts, MFA alone", "setting": "[2]; injection of MFA alone in control eyes", "result": "no detectable effect"}, {"measurement": "loss of cells (RGC+dAC) in the GCL", "setting": "[2]; intravitreal MFA, microbead-injected eyes, 8 weeks", "result": "prevents loss of cells in GCL"}]}]}
